16 molecules from ChEMBL document CHEMBL1137164, “Antioxidative activities of novel diphenylalkyl piperazine derivatives with high affinities for the dopamine transporter” (Bioorg Med Chem Lett, 2004) can be followed below.

SMILES strings stand for the structures.

For the assay, the species on record is Canis familiaris. Description: inhibitory concentration against auto-oxidative lipid peroxidation in canine brain homogenate.
`CN(C)c1ccc(NCC(O)CN2CCN(CCCC(c3ccc(F)cc3)c3ccc(F)cc3)CC2)cc1` (stereo unspecified) came in with an IC50 of 2.2 µM. In other words, the single-digit micromolar range.

`Nc1ccc(NCC(O)CN2CCN(CCCC(c3ccc(F)cc3)c3ccc(F)cc3)CC2)cc1` (stereo unspecified) yielded a half-inhibitory concentration (IC50) of 2.7 µM. This IC50 and that of the molecule before are within 1.5-fold of each other.

`Oc1ccc(NCC(O)CN2CCN(CCCC(c3ccc(F)cc3)c3ccc(F)cc3)CC2)cc1` (stereo unspecified) gave an IC50 of 0.32 µM.

In turn, `CC(C)(C)c1cc(NCC(O)CN2CCN(CCCC(c3ccc(F)cc3)c3ccc(F)cc3)CC2)cc(C(C)(C)C)c1O` (stereo unspecified) gave an IC50 of 2.8 µM.

The molecule `COc1cc(NCC(O)CN2CCN(CCCC(c3ccc(F)cc3)c3ccc(F)cc3)CC2)cc(OC)c1OC` (stereo unspecified) displayed an IC50 of 1.4 µM.

As to `OC(CNc1ccc(Cl)cc1)CN1CCN(CCCC(c2ccc(F)cc2)c2ccc(F)cc2)CC1` (stereo unspecified), it took 8.5 µM to reach half-maximal inhibition (IC50).

Turning to `OC(CNc1ccc(Cl)c(Cl)c1)CN1CCN(CCCC(c2ccc(F)cc2)c2ccc(F)cc2)CC1` (stereo unspecified), the half-inhibitory concentration (IC50) was determined as 23 µM.

In turn, `OC(CNc1ccccc1)CN1CCN(CCCC(c2ccc(F)cc2)c2ccc(F)cc2)CC1` (stereo unspecified) yielded an IC50 of 6.5 µM.

`O=[N+]([O-])c1ccc(NCC(O)CN2CCN(CCCC(c3ccc(F)cc3)c3ccc(F)cc3)CC2)cc1` (stereo unspecified): half-maximal inhibition (IC50) required 182 µM.

With `OC(CNc1ccccc1)CN1CCN(CCCCC(c2ccc(F)cc2)c2ccc(F)cc2)CC1` (stereo unspecified), inhibition was half-maximal at 8.3 µM (IC50).

Molecule `OC(CNc1ccccc1)CN1CCN(C(c2ccc(F)cc2)c2ccc(F)cc2)CC1` (stereo unspecified) registered a half-inhibitory concentration (IC50) of 6.9 µM.

For `OC(CNc1ccccc1)CN1CCN(CCC(c2ccc(F)cc2)c2ccc(F)cc2)CC1` (stereo unspecified), it took 11 µM to reach half-maximal inhibition (IC50).

Molecule `COc1ccc(NCC(O)CN2CCN(CCCC(c3ccc(F)cc3)c3ccc(F)cc3)CC2)cc1` (stereo unspecified) registered an IC50 of 1.6 µM.

For `OC(CNc1ccccc1)CN1CCN(CC(c2ccc(F)cc2)c2ccc(F)cc2)CC1` (stereo unspecified), the half-inhibitory concentration (IC50) turned out to be 11 µM.

With `Cc1ccc(NCC(O)CN2CCN(CCCC(c3ccc(F)cc3)c3ccc(F)cc3)CC2)cc1` (stereo unspecified), the IC50 amounted to 6.1 µM.

Molecule `Cc1c(C)c2c(c(C)c1O)CC[C@@](C)(CCC[C@H](C)CCC[C@H](C)CCCC(C)C)O2` [ALPHA-TOCOPHEROL] returned an IC50 of 1.5 µM. This IC50 lies about 4.1-fold lower than the previous one.
